Reference: PubChem BioAssay (NCI)
“And” between values parts separate entries of the source, which are not always exact repeats. Equal entries are not always repeated.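 96-well plates; 48 h exposure; 5 concentrations. Endpoints by linear interpolation between flanking doses. Not reached: highest tested concentration assigned. GI50 = concentration required for 50% inhibition of growth. TGI: concentration producing complete growth inhibition.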

Legend:
Test in all cases: NCI tumour cell line growth inhibition, 48 h
CAKI-1 renal = test system: CAKI-1 renal
DLD-1 colon = test system: DLD-1 colon
DMS 114 small cell lung = test system: DMS 114 small cell lung
HOP-92 NSCLC = test system: HOP-92 NSCLC
K-562 leukemia = test system: K-562 leukemia
M14 melanoma = test system: M14 melanoma
OVCAR-8 ovarian = test system: OVCAR-8 ovarian
SK-MEL-2 melanoma = test system: SK-MEL-2 melanoma
NCI-H522 lung = test system: NCI-H522 lung
NCI/ADR-RES ovarian = test system: NCI/ADR-RES ovarian

Row | SMILES | TGI (CAKI-1 renal) | TGI (DLD-1 colon) | TGI (DMS 114 small cell lung) | TGI (HOP-92 NSCLC) | TGI (K-562 leukemia) | TGI (M14 melanoma) | TGI (OVCAR-8 ovarian) | TGI (SK-MEL-2 melanoma) | TGI (NCI-H522 lung) | GI50 (CAKI-1 renal) | GI50 (HOP-92 NSCLC) | GI50 (K-562 leukemia) | GI50 (M14 melanoma) | GI50 (NCI-H522 lung) | GI50 (NCI/ADR-RES ovarian) | TGI (NCI/ADR-RES ovarian) | GI50 (OVCAR-8 ovarian) | GI50 (SK-MEL-2 melanoma) | GI50 (DLD-1 colon)
1 | CN(C)c1ccc(/C=N\N2C(=O)c3ccccc3C2=O)cc1 | > 100 µM | > 100 µM | > 100 µM | > 100 µM | > 100 µM | > 100 µM | > 100 µM | > 100 µM |  |  |  |  |  |  |  |  |  |  | 
2 | CCCCCCCCCCCCN(O)C(=O)c1ccccc1 |  | > 100 µM |  | 71.8 µM | > 100 µM | 82.2 µM | 74.3 µM | > 100 µM | > 100 µM |  |  |  |  |  |  |  |  |  | 
3 | CCOC(=O)NC(=O)c1cn(CCN2CCN(C(=O)CCCCCCCCCCNc3ncnc4nc[nH]c34)CC2)c(=O)[nH]c1=O | > 100 µM | > 100 µM |  | > 100 µM | > 100 µM | > 100 µM | > 100 µM | > 100 µM |  |  |  |  |  |  |  |  |  |  | 
4 | Cc1cc(C)c(S(=O)(=O)ONC(=O)OC(C)(C)C)c(C)c1 | > 100 µM | > 100 µM |  | > 100 µM | > 100 µM | > 100 µM | > 100 µM | > 100 µM | > 100 µM |  |  |  |  |  |  |  |  |  | 
5 | Cc1cc(C)nc(SC2=C(Nc3cccc(Cl)c3C)C(=O)N(Cc3ccccc3)C2=O)n1 | > 160 µM |  |  | > 160 µM | > 160 µM | > 160 µM | > 160 µM | > 160 µM | > 160 µM | > 160 µM | > 160 µM | > 160 µM | > 160 µM | > 160 µM | > 160 µM | > 160 µM | > 160 µM | > 160 µM | 
6 | COc1ccc(-c2cc(-c3cc(OC)c(OC)c(OC)c3)c(C#N)c(N3CCOCC3)n2)cc1O | > 100 µM |  |  | > 100 µM | > 24.1 µM | > 100 µM | > 100 µM | > 100 µM | > 53.6 µM | 0.866 µM | 5.67 µM | 2.47 µM | 10.1 µM | 5.14 µM | 1.85 µM | > 100 µM | 6.11 µM | 13.5 µM | 
7 | CN(C[C@@H]1COCCO1)S(=O)(=O)Nc1ccc2ccc3ncc(-c4cnn(C)c4)cc3c(=O)c2c1 | > 27.4 µM |  |  | > 30.3 µM | > 100 µM | > 100 µM | > 100 µM | > 29.4 µM | > 31 µM | 1.94 µM | 2.25 µM | 6.57 µM | 3.89 µM | 3.71 µM | 11.8 µM | > 100 µM | 5.04 µM | 3.12 µM | 
8 | CCC(C(=O)[O-])C(=O)[O-].CCC(C(=O)[O-])C(=O)[O-].N.N.NCCCCCCN.[Pt+4].[Pt+4] | 4.97 µM | 13.9 µM |  | 3.87 µM | 10.3 µM | 13.1 µM | 28.1 µM | 16.9 µM |  | 2.25 µM | 1.24 µM | 1.79 µM | 6.68 µM |  |  |  | 11.5 µM | 8.4 µM | 3.79 µM
9 | CCOC(=O)c1cc2c(n1Cc1ccccc1)-c1oncc1CC2 | 18.8 µM |  |  | 42.7 µM | > 100 µM | 24.6 µM | 66.9 µM | 27.3 µM | 17.5 µM | 3.24 µM | 5.24 µM | 2.48 µM | 3.69 µM | 1.96 µM | 2.01 µM | 6.3 µM | 7.19 µM | 6.15 µM | 
10 | Cc1c(NC(=O)OC[C@@H]2COCCN2)cn2ncnc(Nc3ccc4c(cnn4Cc4cccc(F)c4)c3)c12 | > 10 µM and 15.5 µM |  |  | > 10 µM and 10.7 µM | > 10 µM and 17.1 µM | > 10 µM and 16.3 µM | > 10 µM and 28.7 µM | > 10 µM and 29.4 µM | > 10 µM and 17.4 µM | > 10 µM and 1.36 µM | 1.45 µM and 0.991 µM | 3.91 µM and 4.53 µM | 9.45 µM and 4.41 µM | > 10 µM and 2.16 µM | > 10 µM and 13.1 µM | > 10 µM and 33.5 µM | > 10 µM and 8.88 µM | > 10 µM and 12.9 µM | 
11 | CC(=O)OC1CC2C(C)(C)C(=O)C=CC2(C)C2CCC3(C)C(c4ccoc4)OC(=O)C4OC43C12C (stereo not drawn) | 31.1 µM |  |  | > 100 µM | > 100 µM | 28.1 µM | 53.9 µM | 39.2 µM | 19.8 µM |  |  |  |  |  |  | > 100 µM |  |  | 
12 | CC(=O)[O][Hg][c]1ccccc1 | 2.89 µM |  |  | 0.92 µM | 1.31 µM | 1.06 µM | 3.96 µM | 1.27 µM | 0.292 µM | 0.964 µM | 0.299 µM | 0.294 µM | 0.283 µM | 0.138 µM | 1.7 µM | 5.74 µM | 0.921 µM | 0.401 µM | 
13 | C/C(Cc1ccc(Cl)cc1)=C(/c1ccc(Cl)cc1)c1ccc(OCCN(C)C)cc1 | 8.98 µM |  |  | 6.48 µM | 5.83 µM | 10.8 µM | 13.7 µM | 11.4 µM | 11.4 µM | 4.63 µM | 1.62 µM | 0.981 µM | 5.19 µM | 5.31 µM | 4.8 µM | 9.88 µM | 5.75 µM | 5.69 µM | 
14 | COC(=O)C(Cc1nc2ccc(Cl)cc2[nH]c1=O)/C(=N/NC(N)=O)C(=O)Nc1ccc(Cl)cc1 (stereo not drawn) | > 100 µM |  | > 100 µM | > 100 µM | > 100 µM | > 100 µM | > 100 µM | > 100 µM | > 100 µM |  |  |  |  |  |  |  |  |  | 
15 | O=C1C2c3[nH]c4ccccc4c3[C@@H]3CCCCC3C2C(=O)N1c1ccccc1 (stereo partly drawn) |  | 92.4 µM | 58.4 µM |  | > 100 µM | 30 µM | 52.9 µM |  |  |  |  |  |  |  |  |  |  |  | 
16 | Cc1nc2n(c(=O)c1CCN1CCC(c3noc4cc(F)ccc34)CC1)CCCC2 | > 50 µM |  |  | > 50 µM | > 50 µM | > 50 µM | > 50 µM | > 50 µM | > 50 µM | > 50 µM | > 50 µM | > 50 µM | > 50 µM | > 50 µM | > 50 µM | > 50 µM | > 50 µM | > 50 µM | 
17 | O=C(O)c1ccc2c(c1)nc(Nc1cccc(Cl)c1)c1ccncc12 | 5.73 µM and 7.22 µM |  |  | 3.77 µM and 4.06 µM | 15.7 µM and > 10 µM | 5.39 µM and 9.68 µM | > 75.4 µM | 7.11 µM and 5.59 µM | 6.42 µM and 4.51 µM | 1.31 µM and 1.96 µM | 0.325 µM and 0.445 µM | 3.06 µM and 4.09 µM | 1.52 µM and 2.2 µM | 1.98 µM and 1.39 µM | 3.17 µM and 3.73 µM | > 80.1 µM | 4.1 µM and 3.3 µM | 2.4 µM and 1.86 µM | 
18 | O=C(CCCCCCSc1nc(-c2ccc(Cl)cc2)cc(-c2ccc(Cl)cc2)n1)NO | 4.76 µM |  |  | 8.39 µM | > 50 µM | 3.87 µM | 8.1 µM | 18.4 µM | 4.45 µM | 1.34 µM | 1.61 µM | 1.65 µM | 1.26 µM | 0.97 µM | 0.998 µM | 2.97 µM | 1.43 µM | 4.02 µM | 
19 | N#CC1(C=O)c2ccccc2C=CN1C(=O)c1ccccc1 (stereo not drawn) | > 100 µM |  | 49 µM | 65.9 µM | 91.6 µM | 92.4 µM | > 100 µM | > 100 µM | > 100 µM |  |  |  |  |  |  |  |  |  | 
20 | COC12CC(=O)C(C(C)=O)=C(O)C1(C)c1c(OC(C)=O)c(C)c(O)c(C(C)=O)c1O2 (stereo not drawn) | 54.1 µM |  | > 100 µM | 52 µM | > 100 µM | > 100 µM | > 100 µM | 53.6 µM |  |  |  |  |  |  |  |  |  |  | 
21 | N[C@@H]1CCCN(c2c(/C=C3\SC(=O)NC3=O)cccc2-c2ccccc2)C1 | 31.7 µM |  |  | 20.1 µM | 54.2 µM | 25.8 µM | 27.9 µM | 30.3 µM | 25.3 µM | 15 µM | 3.17 µM | 11.7 µM | 11.1 µM | 11.5 µM | 17.4 µM | 40.4 µM | 14 µM | 15.2 µM | 
22 | c1ccc(COCC2OC3c4ccccc4COC3C2OCc2ccccc2)cc1 (stereo not drawn) | > 100 µM | > 100 µM | > 100 µM | 87.1 µM | > 100 µM | > 100 µM | > 100 µM | > 100 µM |  |  |  |  |  |  |  |  |  |  | 
23 | Cc1ccc(S(=O)(=O)Cc2nc(-c3ccc(C(=O)NCc4cccnc4)cc3)oc2C)cc1 | > 100 µM |  |  | > 100 µM | > 100 µM | > 100 µM | > 100 µM | > 86.3 µM | 27.7 µM | 1.87 µM | 13 µM | < 0.01 µM | 0.0699 µM | 1.33 µM | 0.623 µM | > 100 µM | < 0.01 µM | 5.45 µM | 
24 | COc1ccc(-c2csc(-c3cc(Cl)cc(Cl)c3Cl)n2)cc1 | > 100 µM |  |  | > 100 µM | > 100 µM | > 100 µM | > 100 µM | > 100 µM | > 100 µM | > 100 µM | 27.6 µM | 46 µM | > 100 µM | > 100 µM | 52.2 µM | > 100 µM | 48.4 µM | > 100 µM | 
25 | C[C@H]1C(Oc2ccc(O)cc2)OC2OC3(C)CCC4[C@H](C)CCC1C24OO3 (stereo partly drawn) | 40.8 µM |  |  | 25 µM | > 100 µM | 34.3 µM | 25.4 µM | 23 µM | 25.3 µM | 18.5 µM | 11.5 µM | > 42 µM | 16.1 µM | 11 µM | 8.04 µM | 25.8 µM | 2.12 µM | 7.1 µM | 
26 | O=C(c1ccccc1)c1nc2ccc(C(F)(F)F)cc2[n+]([O-])c1C(F)(F)F | > 100 µM |  |  | 78.5 µM | > 100 µM | > 100 µM | > 100 µM | > 100 µM | 79 µM | 30.4 µM | 15.1 µM | 18.2 µM | 34.5 µM | 24.7 µM | 27 µM | > 100 µM | 38.7 µM | 27.5 µM | 
